Experimental data: patent publication US8785445B2 (Array BioPharma Inc., priority 2008, dated 2014)

target: T1, human DP2 (Homo sapiens, UniProt Q9Y5Y4); assay: DP-2 binding inhibition assay (3H-PGD2, membranes of DP2-expressing K562 cells); settings: 0.1% BSA, read-out: EC50 (nM) 0.1% BSA
T1 construct: expressed in transfected cells; membranes prepared
T1 sequence (Q9Y5Y4 1-395): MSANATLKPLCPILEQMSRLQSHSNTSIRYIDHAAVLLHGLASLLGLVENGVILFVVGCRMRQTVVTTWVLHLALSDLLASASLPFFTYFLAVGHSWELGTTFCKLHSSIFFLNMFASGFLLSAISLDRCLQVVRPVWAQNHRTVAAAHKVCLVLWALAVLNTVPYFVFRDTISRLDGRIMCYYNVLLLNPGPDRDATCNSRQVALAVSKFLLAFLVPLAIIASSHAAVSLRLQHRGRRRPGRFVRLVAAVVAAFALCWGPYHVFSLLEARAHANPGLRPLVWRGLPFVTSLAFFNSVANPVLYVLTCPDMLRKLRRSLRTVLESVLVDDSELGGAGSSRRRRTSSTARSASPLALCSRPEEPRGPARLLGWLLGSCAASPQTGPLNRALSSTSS
How it was run: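 Displacement of 3H-PGD2 was measured by filtration and scintillation counting after 60 min at room temperature, using membranes of DP2-transfected K562 cells in 0.1% BSA, 1% HSA or 4% HSA.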

Row | Compound | EC50 [nM]
1 | N#Cc1cc2c(cc1Oc1ccc(C(=O)Nc3nc4ccc(C(F)(F)F)cc4s3)cc1)OCCC2C(=O)O (centres unmarked) [Example 201, 6-cyano-7-(4-(6-(trifluoromethyl)benzo[d]thiazol-2-ylcarbamoyl)phenoxy)chroman-4-carboxylic acid] | 5.1
2 | N#Cc1cc2c(cc1Oc1ccc(C(=O)Nc3ccc4nc(C(F)(F)F)[nH]c4c3)cc1)OCCC2C(=O)O (centres unmarked) [Example 191, 6-cyano-7-(4-(2-(trifluoromethyl)-1H-benzo[d]imidazol-6-ylcarbamoyl)phenoxy) chroman-4-carboxylic acid] | 41.5

Other lines, results leading:

Row | EC50 [nM] | Compound
3 | 36.7 | N#Cc1cc2c(cc1Oc1ccc(C(=O)Nc3ccc4cn[nH]c4c3)cc1)OCCC2C(=O)O (centres unmarked) [Example 193, 7-(4-(1H-indazol-6-ylcarbamoyl)phenoxy)-6-cyanochroman-4-carboxylic acid]
4 | 10.8 | N#Cc1cc2c(cc1Oc1ccc(C(=O)Nc3nc4c(Cl)cccc4s3)cc1)OCCC2C(=O)O (centres unmarked) [Example 199]

same assay, conditions: 1% HSA, read-out: EC50 (nM) 1% HSA

Row | EC50 [nM] | Compound
5 | 137 | N#Cc1cc2c(cc1Oc1ccc(C(=O)Nc3ccc4nc(C(F)(F)F)[nH]c4c3)cc1)OCCC2C(=O)O (centres unmarked) [Example 191, 6-cyano-7-(4-(2-(trifluoromethyl)-1H-benzo[d]imidazol-6-ylcarbamoyl)phenoxy) chroman-4-carboxylic acid]

same assay, conditions: 4% HSA, read-out: EC50 (nM) 4% HSA

Row | Compound | EC50 [nM]
6 | N#Cc1cc2c(cc1Oc1ccc(C(=O)Nc3nc4ccc(C(F)(F)F)cc4s3)cc1)OCCC2C(=O)O (centres unmarked) [Example 201, 6-cyano-7-(4-(6-(trifluoromethyl)benzo[d]thiazol-2-ylcarbamoyl)phenoxy)chroman-4-carboxylic acid] | 355
7 | COc1ccc(-c2cccc(NC(=O)c3ccc(Oc4cc5c(cc4Cl)C(C(=O)O)CCO5)cc3)n2)cc1 (centres unmarked) [Example 58, 6-Chloro-7-(4-(6-(4-methoxyphenyl)pyridin-2-ylcarbamoyl)phenoxy)chroman-4-carboxylic acid] | 67
8 | O=C(Nc1cc(C(F)(F)F)ccn1)c1ccc(Oc2cc3c(cc2Cl)C(C(=O)O)CCO3)cc1 (centres unmarked) [Example 31, 6-Chloro-7-(4-(4-(trifluoromethyl)pyridin-2-ylcarbamoyl)phenoxy)chroman-4-carboxylic acid] | 1730
9 | O=C(Nc1cccc(-c2ccc(F)cc2)n1)c1ccc(Oc2cc3c(cc2Cl)C(C(=O)O)CCO3)cc1 (centres unmarked) [Example 109, 6-Chloro-7-(4-(6-(4-fluorophenyl)pyridin-2-ylcarbamoyl)phenoxy)chroman-4-carboxylic acid] | 129
10 | O=C(Nc1cc(-c2ccc(F)cc2)n[nH]1)c1ccc(Oc2cc3c(cc2Cl)C(C(=O)O)CCO3)cc1 (centres unmarked) [Example 181, 6-Chloro-7-(4-(3-(4-fluorophenyl)-1H-pyrazol-5-ylcarbamoyl)phenoxy)chroman-4-carboxylic acid] | 313
11 | Cc1ccc(-c2csc(NC(=O)c3ccc(Oc4cc5c(cc4C#N)C(C(=O)O)CCO5)cc3)n2)cc1 (centres unmarked) [Example 205, 6-cyano-7-(4-(4-p-tolylthiazol-2-ylcarbamoyl)phenoxy) chroman-4-carboxylic acid] | 96.2
12 | COc1ccc(CCNC(=O)c2ccc(Oc3cc4c(cc3Cl)C(C(=O)O)CCO4)cc2)cn1 (centres unmarked) [Example 217, 6-chloro-7-(4-(2-(6-methoxypyridin-3-yl)ethylcarbamoyl)phenoxy) chroman-4-carboxylic acid] | 1370
13 | O=C(Nc1ccc(-c2cccc(C(F)(F)F)c2)nn1)c1ccc(Oc2cc3c(cc2Cl)C(C(=O)O)CCO3)cc1 (centres unmarked) [Example 99, Sodium 6-chloro-7-(4-(6-(3-(trifluoromethyl)phenyl)pyridazin-3-ylcarbamoyl)phenoxy)chroman-4-carboxylate] | 235
14 | COc1cc(Cl)ccc1-c1cccc(NC(=O)c2ccc(Oc3cc4c(cc3Cl)C(C(=O)O)CCO4)cc2)n1 (centres unmarked) [Example 104, Sodium 6-chloro-7-(4-(6-(4-chloro-2-methoxyphenyl)pyridin-2-ylcarbamoyl)phenoxy)chroman-4-carboxylate] | 116
15 | O=C(Nc1ccnc(-c2ccc(Cl)cc2)n1)c1ccc(Oc2cc3c(cc2Cl)C(C(=O)O)CCO3)cc1 (centres unmarked) [Example 100, sodium 6-chloro-7-(4-(2-(4-chlorophenyl)pyrimidin-4-ylcarbamoyl)phenoxy)chroman-4-carboxylate] | 46
16 | O=C(Nc1ccn(-c2ccc(Cl)c(Cl)c2)n1)c1ccc(Oc2cc3c(cc2Cl)C(C(=O)O)CCO3)cc1 (centres unmarked) [Example 173, 6-chloro-7-(4-(1-(3,4-dichlorophenyl)-1H-pyrazol-3-ylcarbamoyl)phenoxy)chroman-4-carboxylic acid] | 22.9
17 | COc1ncccc1CCNC(=O)c1ccc(Oc2cc3c(cc2Cl)C(C(=O)O)CCO3)cc1 (centres unmarked) [Example 227, 6-chloro-7-(4-(2-(2-methoxypyridin-3-yl)ethylcarbamoyl)phenoxy) chroman-4-carboxylic acid] | 857
18 | O=C(Nc1cccc(-c2ccc(F)c(F)c2)n1)c1ccc(Oc2cc3c(cc2Cl)C(C(=O)O)CCO3)cc1 (centres unmarked) [Example 81, 6-Chloro-7-(4-(6-(3,4-difluorophenyl)pyridin-2-ylcarbamoyl)phenoxy)chroman-4-carboxylic acid] | 97.9
19 | O=C(Nc1ccnc(-c2ccc(Cl)cc2)c1)c1ccc(Oc2cc3c(cc2Cl)C(C(=O)O)CCO3)cc1 (centres unmarked) [Example 128, 6-Chloro-7-(4-(2-(4-chlorophenyl)pyridin-4-ylcarbamoyl)phenoxy)chroman-4-carboxylic acid] | 596
20 | O=C(Nc1cnc(-c2ccc(Cl)cc2)cn1)c1ccc(Oc2cc3c(cc2Cl)C(C(=O)O)CCO3)cc1 (centres unmarked) [Example 95, 6-Chloro-7-(4-(5-(4-chlorophenyl)pyrazin-2-ylcarbamoyl)phenoxy)chroman-4-carboxylic acid] | 365
21 | O=C(Nc1ccc(-c2ccc(C(F)(F)F)cc2F)nn1)c1ccc(Oc2cc3c(cc2Cl)C(C(=O)O)CCO3)cc1 (centres unmarked) [Example 70, Sodium 6-chloro-7-(4-(6-(2-fluoro-4-(trifluoromethyl)phenyl)pyridazin-3-ylcarbamoyl)phenoxy)chroman-4-carboxylate] | 437

More lines, now with the values ahead:

Row | EC50 [nM] | Compound
22 | 3440 | N#Cc1cc2c(cc1Oc1ccc(C(=O)Nc3nnc(-c4ccc(Cl)cc4)s3)cc1)OCCC2C(=O)O (centres unmarked) [Example 204, 7-(4-(5-(4-chlorophenyl)-1,3,4-thiadiazol-2-ylcarbamoyl)phenoxy)-6-cyanochroman-4-carboxylic acid]
23 | 313 | O=C(Nc1cnc(-c2cccc(Cl)c2)nc1)c1ccc(Oc2cc3c(cc2Cl)C(C(=O)O)CCO3)cc1 (centres unmarked) [Example 135, 6-Chloro-7-(4-(2-(3-chlorophenyl)pyrimidin-5-ylcarbamoyl)phenoxy)chroman-4-carboxylic acid]
24 | 41.4 | O=C(Nc1cccc(-c2ccc(Cl)cc2F)n1)c1ccc(Oc2cc3c(cc2Cl)C(C(=O)O)CCO3)cc1 (centres unmarked) [Example 87, 6-chloro-7-(4-(6-(4-chloro-2-fluorophenyl)pyridin-2-ylcarbamoyl)phenoxy)chroman-4-carboxylic acid]
25 | 962 | O=C(NCCc1cccc(-c2ccccc2Cl)n1)c1ccc(Oc2cc3c(cc2Cl)C(C(=O)O)CCO3)cc1 (centres unmarked) [Example 221, 6-chloro-7-(4-(2-(6-(2-chlorophenyl)pyridin-2-yl)ethylcarbamoyl)phenoxy) chroman-4-carboxylic acid]
26 | 83.4 | O=C(Nc1cccc(-c2ccc(Cl)cc2)n1)c1ccc(Oc2c(Cl)cc3c(c2Cl)OCCC3C(=O)O)cc1 (centres unmarked) [Example 143, Sodium 6,8-dichloro-7-(4-(6-(4-chlorophenyl)pyridin-2-ylcarbamoyl)phenoxy)-chroman-4-carboxylate]
27 | 406 | O=C(Nc1cc(-c2ccc(Cl)cc2)n[nH]1)c1ccc(Oc2cc3c(cc2Cl)C(C(=O)O)CCO3)cc1 (centres unmarked) [Example 180, 6-Chloro-7-(4-(3-(4-chlorophenyl)-1H-pyrazol-5-ylcarbamoyl)phenoxy)chroman-4-carboxylic acid]
28 | 87.7 | O=C(Nc1cccc(-c2ccc(Cl)cc2)n1)c1ccc(Oc2c(Cl)cc3c(c2Br)OCCC3C(=O)O)cc1 (centres unmarked) [Example 106, Sodium 8-bromo-6-chloro-7-(4-(6-(4-chlorophenyl)pyridin-2-ylcarbamoyl)phenoxy)chroman-4-carboxylate]
29 | 283 | O=C(Nc1ccc(-c2ccc(C(F)(F)F)cc2Cl)nn1)c1ccc(Oc2cc3c(cc2Cl)C(C(=O)O)CCO3)cc1 (centres unmarked) [Example 59, Sodium 6-chloro-7-(4-(6-(2-chloro-4-(trifluoromethyl)phenyl)pyridazin-3-ylcarbamoyl)phenoxy)chroman-4-carboxylate]
30 | 101 | O=C(Nc1ccc(-c2ccc(C(F)(F)F)cc2)nc1)c1ccc(Oc2cc3c(cc2Cl)C(C(=O)O)CCO3)cc1 (centres unmarked) [Example 76, Sodium 6-chloro-7-(4-(6-(4-(trifluoromethyl)phenyl)pyridin-3-ylcarbamoyl)phenoxy)chroman-4-carboxylate]
31 | 442 | O=C(Nc1cncc(-c2ccc(Cl)cc2)n1)c1ccc(Oc2c(Cl)cc3c(c2Cl)OCCC3C(=O)O)cc1 (centres unmarked) [Example 136, 6,8-Dichloro-7-(4-(6-(4-chlorophenyl)pyrazin-2-ylcarbamoyl)phenoxy)chroman-4-carboxylic acid]
32 | 1460 | O=C(Nc1cccc(C2CC2)n1)c1ccc(Oc2cc3c(cc2Cl)C(C(=O)O)CCO3)cc1 (centres unmarked) [Example 111, 6-Chloro-7-(4-(6-cyclopropylpyridin-2-ylcarbamoyl)phenoxy)chroman-4-carboxylic acid]
33 | 105 | O=C(Nc1nc2ccc(Cl)cc2s1)c1ccc(Oc2cc3c(cc2Cl)C(C(=O)O)CCO3)cc1 (centres unmarked) [Example 207, 6-chloro-7-(4-(6-chlorobenzo[d]thiazol-2-ylcarbamoyl)phenoxy) chroman-4-carboxylic acid]
34 | 421 | O=C(NC1CCN(c2cccc(C(F)(F)F)n2)CC1)c1ccc(Oc2cc3c(cc2Cl)C(C(=O)O)CCO3)cc1 (centres unmarked) [Example 211]
35 | 30 | O=C(Nc1cccc(-c2ccc(Cl)cc2)n1)c1ccc(Oc2cc3c(cc2Cl)C(C(=O)O)CCO3)cc1 (centres unmarked) [Example 33, 6-Chloro-7-(4-(6-(4-chlorophenyl)pyridin-2-ylcarbamoyl)phenoxy)chroman-4-carboxylic acid]
